One series addresses T1, IL-2Rαβγ (Homo sapiens, UniProt P01589+P14784+P31785).
T1 construct: host or cells: U2OS
T1 sequence (P01589 22-272): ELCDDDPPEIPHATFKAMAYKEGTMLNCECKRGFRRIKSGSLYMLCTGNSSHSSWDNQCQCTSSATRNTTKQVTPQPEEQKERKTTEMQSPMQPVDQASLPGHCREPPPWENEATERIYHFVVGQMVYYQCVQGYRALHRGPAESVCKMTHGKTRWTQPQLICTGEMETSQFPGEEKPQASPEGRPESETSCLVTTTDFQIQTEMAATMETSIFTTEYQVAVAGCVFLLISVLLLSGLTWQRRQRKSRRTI
T1 sequence (P14784 27-551): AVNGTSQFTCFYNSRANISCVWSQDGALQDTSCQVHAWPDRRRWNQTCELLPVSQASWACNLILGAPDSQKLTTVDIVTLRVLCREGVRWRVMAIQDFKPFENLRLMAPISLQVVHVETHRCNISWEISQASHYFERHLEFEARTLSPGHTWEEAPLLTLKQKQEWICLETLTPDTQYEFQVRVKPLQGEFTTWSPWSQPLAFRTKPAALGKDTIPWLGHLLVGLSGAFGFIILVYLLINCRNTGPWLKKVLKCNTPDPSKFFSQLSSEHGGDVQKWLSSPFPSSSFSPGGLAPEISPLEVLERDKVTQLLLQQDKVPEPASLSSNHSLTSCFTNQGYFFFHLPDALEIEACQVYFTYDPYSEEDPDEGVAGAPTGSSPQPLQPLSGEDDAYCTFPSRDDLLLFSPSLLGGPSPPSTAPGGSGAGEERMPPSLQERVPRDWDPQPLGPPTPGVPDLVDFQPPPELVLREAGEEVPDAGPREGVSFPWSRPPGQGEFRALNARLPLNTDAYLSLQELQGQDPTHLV
T1 sequence (P31785 23-369): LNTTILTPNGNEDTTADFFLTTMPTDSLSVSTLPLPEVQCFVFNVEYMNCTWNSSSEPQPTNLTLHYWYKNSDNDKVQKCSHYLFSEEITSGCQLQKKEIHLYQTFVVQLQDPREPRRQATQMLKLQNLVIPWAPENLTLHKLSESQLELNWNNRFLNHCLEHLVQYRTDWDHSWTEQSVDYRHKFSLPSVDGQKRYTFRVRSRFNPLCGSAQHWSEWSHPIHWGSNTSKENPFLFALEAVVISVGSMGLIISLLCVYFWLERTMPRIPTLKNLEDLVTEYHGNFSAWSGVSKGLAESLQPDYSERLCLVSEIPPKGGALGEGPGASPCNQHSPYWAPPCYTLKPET
The series can be described thus: U2OS cell-based assay kit for IL-2Rαβγ binding (DiscoverX). The procedure: (§1) IL-2[N88R,C125S] was prepared by expression in HEK cells. Cell-based receptor binding assays were performed to evaluate the activity of the mutein against the high-affinity αβγ trimeric (Treg) and intermediate affinity βγ dimeric (Teff) forms of the IL-2 receptor (Table 1). The mutein binds only 6-fold poorer than IL-2 to the IL-2Rαβγ but about 900-fold poorer to the IL-2Rβγ.
A U2OS cell-based assay kit for IL-2Rαβγ binding was performed according the manufacturer's instructions (DiscoverX, Part #93-1003E3CP0). Cells were plated at 100 μL (˜10,000 cells/well) in 96 well assay plates and grown for 24 hours at 37° C., 5% CO2. Cells were then treated for 6 hours at 37° C., 5% CO2 with dilution series of either WT IL-2, IL-2 N88R, C125S, or IL-2 N88R, C125S released from microspheres at pH 9.4. Eleven WT IL-2 concentrations were assayed between 2 pg/mL-100 ng/mL (0.1 pM-6 nM). Eleven IL-2 N88R, C125S and released IL-2 N88R, C125S concentrations were assayed between 200 pg/mL-10 μg/mL ([…]-600 nM). Treated cells were incubated with chemiluminescent substrate for 1 hour at ambient temperature in the dark, then luminescence was read with a Spectramax i3 plate reader with 250 ms integration time.

For a further series, the target named is T2, IL-2Rβγ (Homo sapiens, UniProt P14784+P31785).
T2 construct: host or cells: U2OS
T2 sequence (P14784 27-551): T1 sequence (P14784 27-551)
T2 sequence (P31785 23-369): T1 sequence (P31785 23-369)
Kind of series: U2OS cell-based assay kit for IL-2Rβγ binding (DiscoverX). To be noted: mutein vs WT IL-2. The procedure:
as §1
A U2OS cell-based assay kit for IL-2Rβγ binding was performed according the manufacturer's instructions (DiscoverX, Part #93-0998E3CP5). Cells were plated at 50 μL (˜5,000 cells/well) in 96 well assay plates and grown for 48 hours at 37° C., 5% CO2. Cells were then treated for 6 hours at 37° C., 5% CO2 with dilution series of either WT IL-2, IL-2 N88R, C125S, or IL-2 N88R, C125S released from microspheres at pH 9.4. Eleven WT IL-2 concentrations were assayed between 17 pg/mL-1 μg/mL (1 pM-61 nM). Eleven IL-2 N88R, C125S concentrations were assayed between 1.7 ng/mL-100 μg/mL ([…]-6 μM). Eleven released remnant IL-2 N88R, C125S concentrations were assayed between 170 pg/mL-10 μg/mL ([…]-600 nM). Treated cells were incubated with chemiluminescent substrate for 1 hour at ambient temperature in the dark, then luminescence was read with a Spectramax i3 plate reader with 250 ms integration time.

Series [1] deals with T-cells in the spleen and islets. The series can be described thus: Pharmacodynamics of IL2 and IL2[N88R,C125S] in NOD mice (flow cytometry of spleen and islets). In kind it is in vivo. To be noted: daily injections 25,000 units for five days. How it is done: Mice were sacrificed 2 hours after the last injection and the spleen and pancreas were harvested for flow cytometry analysis to measure changes in total number of T-cells and their differentiation in the spleen and islets.
(In general: A flow cytometer gives signals particle by particle.)

Series [2] concerns CD8+ memory T cells and NK cells in PBMCs. The series can be described thus: Pharmacodynamics of [aminopropyl]-RLI released from microsphere conjugate. The series is classed as in vivo, C57Black mice. How it is done:
The pharmacodynamics of the MS-RLI conjugate (34 μg, 1.5 nmol) was compared to that of empty MSs, and free RLI (2.5 μg, QDx4) in C57Black mice (n=5/group). Blood draws were taken over 13 days and the PBMCs surface stained using general laboratory procedures. Fixation and intracellular staining followed protocols from the eBioscience Foxp3/Transcription Factor Staining Buffer Set (ThermoFisher Scientific). Commercial antibodies used were against NK1.1, CD3, CD8, CD19, CD44 and Ki-67 expressing cells. Stained single cell suspension were analyzed using a LSRII flow cytometer (BD Biosciences) and analyzed using FlowJo cytometry analysis software (TreeStar, Ashland, Oreg.). Cell populations of particular interest were CD8+ memory T cells (CD44^hiCD8+), natural killer (CD3-NK1.1+) cells, proliferating CD8+ memory T cells (CD44^hiCD8+Ki-67+), and proliferating natural killer (CD3-NK1.1+Ki-67+) cells.

The conditions of series [3]: in vivo; cited from earlier work.

For the substance “IL-2 N88R, C125S: IL-2 mutein, SEQ ID No: 3, prepared by expression in HEK cells”, the “Fold-change βγ EC50 vs αβγ EC50 (selectivity for IL-2Rαβγ vs IL-2Rβγ)” value with IL-2Rαβγ is “over 3,000 fold”. The “Fold-change of βγ EC50 vs WT IL-2 (fold poorer binding)” value with IL-2Rβγ was “about 900 fold”. Besides, in series [1], the “effect on CD4+ and CD8+ effector/memory T-cells in the spleen” value is given as “little to no effect”; the “effect on the T-cells in the islets compared to PBS vehicle” value was “little to no effect”.

On to “RLI: receptor-linked interleukin: fusion protein comprising IL-15 and the sushi-domain of the receptor α-subunit, SEQ ID No: 16”, for which, in series [2] (2.5 μg QDx4), the “day of return of CD44hiCD8+ T cells to baseline levels” value is at most 7 days. Further, the “fold increase in the percentage of NK cells in the PBMCs” value in series [2] (MS-RLI 34 μg single, free RLI 2.5 μg QDx4) is around 4 fold. In addition, in series [2] (MS-RLI 34 μg single, native RLI 2.5 μg QDx4), the “time post treatment at which increase in CD44hiCD8+ T cells was noticeable” value was found to be 5 days. Besides, the “half-life of free RLI” value in series [3] was 3 h.

Values taken from patent publication US20220193253A1, “SLOW-RELEASE CYTOKINE CONJUGATES” (ProLynx LLC, priority 2019, published 2022).
